These results are taken from ChEMBL document CHEMBL1156145, “1-(2-Aminoethyl)-3-(arylsulfonyl)-1H-pyrrolopyridines are 5-HT(6) receptor ligands” (Bioorg Med Chem Lett, 2009).

SMILES strings stand for the structures.

Assay [1] concerns the target T1, 5-hydroxytryptamine receptor 6 (Homo sapiens, UniProt P50406). The experiment in a line: Agonist activity at human HT6 receptor expressed in human HeLa cells assessed as intracellular cAMP level by radioimmunoassay relative to serotonin. The assay is classed as functional, cell-based.
Assay [2] concerns the target T1, 5-hydroxytryptamine receptor 6. In words: Displacement of [3H]LSD from human HT6 receptor expressed in human HeLa cells. The assay is classed as cell-based.
Assay [3] shares this target. The experiment in a line: Agonistic activity at human HT6 receptor expressed in HeLa cells assessed as intracellular cAMP level by radioimmunoassay.
For assay [4] the target is unchanged. The experiment in a line: Antagonistic activity at human HT6 receptor expressed in HeLa cells assessed as intracellular cAMP level by radioimmunoassay relative to serotonin. The class given is functional, cell-based. In general terms: Cyclic AMP is a second messenger, typically raised through Gs and lowered through Gi signalling.
For assay [5] the target is unchanged. In words: Antagonistic activity at human HT6 receptor expressed in HeLa cells assessed as intracellular cAMP level by radioimmunoassay. The class given is functional, cell-based.
Assay [6] shares this target. The experiment in a line: Displacement of [3H]LSD from human HT6 receptor expressed in HeLa cells at 1 uM relative to serotonin. The class given is cell-based.

By Emax is commonly meant the size of the effect at its maximum, as opposed to the concentration needed. One may read the Ki as a dissociation constant, usually derived from enzyme kinetics or from competition with a known ligand. In general, EC50 refers to the concentration giving half of the maximal effect. The term IC50 denotes the point on the concentration scale where inhibition reaches its midpoint.

T1 sequence (P50406 whole entry): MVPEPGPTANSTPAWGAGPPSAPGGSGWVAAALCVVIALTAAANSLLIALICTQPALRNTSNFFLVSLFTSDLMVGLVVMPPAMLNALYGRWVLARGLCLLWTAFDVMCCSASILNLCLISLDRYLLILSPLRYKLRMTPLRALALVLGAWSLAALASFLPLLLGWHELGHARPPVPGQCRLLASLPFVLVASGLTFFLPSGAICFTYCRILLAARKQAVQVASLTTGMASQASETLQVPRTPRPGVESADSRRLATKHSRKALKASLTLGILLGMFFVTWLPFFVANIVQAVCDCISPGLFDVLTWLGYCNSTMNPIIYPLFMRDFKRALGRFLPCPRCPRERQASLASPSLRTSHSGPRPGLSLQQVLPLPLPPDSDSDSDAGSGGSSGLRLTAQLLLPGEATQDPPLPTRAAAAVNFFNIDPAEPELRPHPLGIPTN

Turning to `NCCn1cc(S(=O)(=O)c2cccc(Cl)c2)c2ncccc21`, the maximal effect (Emax) in assay [1] was determined as 56%. For the same molecule, the affinity in assay [2], expressed as Ki, was 35 nM. Besides, the concentration giving a half-maximal response (EC50) in assay [3] was determined as 197 nM.

`CN(C)CCn1cc(S(=O)(=O)c2ccccc2)c2ncccc21` had a Ki in assay [2] of 368 nM.

As for `NCCn1cc(S(=O)(=O)c2cccc(F)c2)c2ncccc21`, the Emax in assay [1] was 51%. In assay [2], this molecule returned an inhibition constant (Ki) of 76 nM. In addition, the EC50 in assay [3] was 823 nM.

`COc1ccc2c(n1)c(S(=O)(=O)c1cccc(F)c1)cn2CCN(C)C`: the inhibition constant Ki in assay [2] was found to be 11.3 nM. The maximal response (Emax) in assay [4] was found to be 91%. For the same molecule, in assay [5], the half-maximal inhibitory concentration (IC50) was 41 nM.

`CC(=O)c1ccc2c(n1)c(S(=O)(=O)c1ccccc1)cn2CCN(C)C`: in assay [2], affinity was put at a Ki of 56 nM.

Take `CN(C)CCn1cc(S(=O)(=O)c2cccc(F)c2)c2cccnc21`: the Emax in assay [1] was determined as 100%.

`CN(C)CCn1cc(S(=O)(=O)c2ccccc2)c2cc(Cl)ncc21` yielded an Activity in assay [6] of 55%.

As for `CC(=O)c1ccc2c(n1)c(S(=O)(=O)c1ccc(Br)cc1)cn2CCN(C)C`, affinity in assay [2] was put at a Ki of 3.9 nM. Besides, in assay [4], the Imax came out at 100%. The IC50 in assay [5] turned out to be 385 nM.

As to `Cc1cccc(S(=O)(=O)c2cn(CCN)c3cccnc23)c1`, the Ki in assay [2] worked out at 46 nM.

In turn, `NCCn1cc(S(=O)(=O)c2c(Cl)nc3sccn23)c2ncccc21` returned an inhibition constant (Ki) in assay [2] of 42 nM.

In assay [6], `CN(C)CCn1cc(S(=O)(=O)c2ccccc2)c2cnccc21` displayed an Activity of 39%.

For the molecule `COc1ccc2c(n1)c(S(=O)(=O)c1cccc3ccccc13)cn2CCN(C)C`, the Ki in assay [2] came to 1.7 nM. Besides, the Emax in assay [4] was found to be 100%. Also, the IC50 in assay [5] was 295 nM.

Take `CN(C)CCn1cc(S(=O)(=O)c2ccccc2)c2cccnc21`: the maximal response (Emax) in assay [1] came to 94%.
